From ChEMBL document CHEMBL4765450, “The components and activities analysis of a novel anticoagulant candidate dHG-5” (Eur J Med Chem, 2020)
Activity calls are given as the source filed them. The calls are words filed in the database; no cut-off is given here.

Tests used:
[1] = target: T1, Coagulation factor IX/VIII (Homo sapiens) (UniProt P00740+P00451); assay: Inhibition of human citrated plasma iXase (factor 8a-factor 9a complex) assessed as activity potency of oligosaccharides multiplied by the percentage of oligosaccharides in dHG-5 preincubated for 2 mins followed by factor 10 addition and measured after 1 min by FXa chromogenic substrate SXa-11 based assay relative to dHG-5; format: protein-complex assay; conditions: time 3.0 min
[2] = target: T2, Coagulation factor VII (Homo sapiens) (UniProt P08709); assay: Inhibition of factor 7a (unknown origin) at IC50 using pefachrome factor VIIa as substrate preincubated for 1 min followed by chromogenic substrate addition and measured for 2 mins in presence of AT-III; conditions: time 3.0 min
T2 sequence (whole entry): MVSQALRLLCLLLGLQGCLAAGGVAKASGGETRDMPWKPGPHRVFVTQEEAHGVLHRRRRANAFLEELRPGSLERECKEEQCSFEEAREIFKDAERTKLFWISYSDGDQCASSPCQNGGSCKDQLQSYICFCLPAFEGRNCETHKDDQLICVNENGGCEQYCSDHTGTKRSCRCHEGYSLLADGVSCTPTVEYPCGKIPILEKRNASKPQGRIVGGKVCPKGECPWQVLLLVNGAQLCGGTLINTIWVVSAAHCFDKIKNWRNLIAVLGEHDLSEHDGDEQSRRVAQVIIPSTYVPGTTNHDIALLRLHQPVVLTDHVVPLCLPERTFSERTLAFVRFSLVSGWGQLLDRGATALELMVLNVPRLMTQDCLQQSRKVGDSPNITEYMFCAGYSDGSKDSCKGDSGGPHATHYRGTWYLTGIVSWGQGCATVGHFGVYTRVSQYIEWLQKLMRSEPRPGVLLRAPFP

[3] = target: Coagulation factor X (Homo sapiens) (UniProt P00742); assay: Inhibition of factor 10a (unknown origin) at IC90 preincubated for 1 min followed by chromogenic substrate addition and measured for 2 mins in presence of AT-III relative to control; conditions: time 3.0 min
Chain of Coagulation factor X (Homo sapiens) (P00742 41-179 limits assumed): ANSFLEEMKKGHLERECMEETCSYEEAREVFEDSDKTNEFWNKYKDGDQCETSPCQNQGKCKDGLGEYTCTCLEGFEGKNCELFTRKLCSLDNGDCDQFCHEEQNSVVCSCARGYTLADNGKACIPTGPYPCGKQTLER
Chain of Coagulation factor X (Homo sapiens) (P00742 235-488 limits assumed): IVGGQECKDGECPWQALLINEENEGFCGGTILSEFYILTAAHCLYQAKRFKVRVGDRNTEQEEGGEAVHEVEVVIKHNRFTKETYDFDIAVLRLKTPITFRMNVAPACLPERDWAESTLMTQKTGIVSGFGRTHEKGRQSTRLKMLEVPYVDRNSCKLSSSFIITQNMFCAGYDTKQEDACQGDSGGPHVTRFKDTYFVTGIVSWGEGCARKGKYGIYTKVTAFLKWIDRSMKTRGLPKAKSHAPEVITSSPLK

Rattus norvegicus [4] = assay: Antithrombotic activity in thromboplastin and stasis-induced Sprague-Dawley rat deep venous thrombosis model assessed as reduction in venous thrombosis by measuring activity potency of oligosaccharides multiplied by the percentage of oligosaccharides in dHG-5 at 1.66 mg/kg, sc administered 1 hr prior to thromboplastin addition for 20 secs followed by establishment of stasis for 20 mins relative …; format: functional; conditions: time 80.33 min, 1.339 h
Coagulation factor IX [5] = target: T3, Coagulation factor IX (Homo sapiens, UniProt P00740); assay: Inhibition of factor 9a (unknown origin) binding to immobilized biotinylated oHG-11 by biolayer interferometry relative to dHG-5
T3 sequence (P00740 47-191 limits assumed): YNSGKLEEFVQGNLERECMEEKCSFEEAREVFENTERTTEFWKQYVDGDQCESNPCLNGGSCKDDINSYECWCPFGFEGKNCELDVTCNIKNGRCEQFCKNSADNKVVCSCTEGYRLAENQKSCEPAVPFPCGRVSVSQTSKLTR
T3 sequence (P00740 227-461 limits assumed): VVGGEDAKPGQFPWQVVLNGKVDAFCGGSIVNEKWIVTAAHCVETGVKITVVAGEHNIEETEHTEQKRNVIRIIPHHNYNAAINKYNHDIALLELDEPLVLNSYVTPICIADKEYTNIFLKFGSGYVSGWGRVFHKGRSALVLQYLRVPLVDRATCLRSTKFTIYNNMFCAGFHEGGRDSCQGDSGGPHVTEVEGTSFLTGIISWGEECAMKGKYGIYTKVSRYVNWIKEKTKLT

Rattus norvegicus [6] = assay: Antithrombotic activity in thromboplastin and stasis-induced Sprague-Dawley rat deep venous thrombosis model assessed as reduction in venous thrombosis at 1.66 mg/kg, sc administered 1 hr prior to thromboplastin addition for 20 secs followed by establishment of stasis for 20 mins relative to dHG-5; format: functional; conditions: time 80.33 min, 1.339 h
[7] = target: Coagulation factor XI (Homo sapiens) (UniProt P03951); assay: Inhibition of factor 11a (unknown origin) at IC50 using S-2366 as substrate preincubated for 1 min followed by chromogenic substrate addition and measured for 2 mins; conditions: time 3.0 min
Chain of Coagulation factor XI (Homo sapiens) (P03951 19-387 limits assumed): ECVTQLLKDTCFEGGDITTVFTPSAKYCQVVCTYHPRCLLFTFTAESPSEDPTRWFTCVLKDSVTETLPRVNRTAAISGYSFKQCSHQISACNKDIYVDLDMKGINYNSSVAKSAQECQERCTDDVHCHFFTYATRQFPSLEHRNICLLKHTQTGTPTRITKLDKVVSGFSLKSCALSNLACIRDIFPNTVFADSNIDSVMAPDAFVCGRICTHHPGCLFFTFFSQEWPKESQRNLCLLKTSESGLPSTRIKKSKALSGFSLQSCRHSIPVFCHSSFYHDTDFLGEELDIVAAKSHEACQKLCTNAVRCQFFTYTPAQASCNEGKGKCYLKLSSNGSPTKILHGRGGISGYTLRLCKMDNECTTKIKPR
Chain of Coagulation factor XI (Homo sapiens) (P03951 388-625 limits assumed): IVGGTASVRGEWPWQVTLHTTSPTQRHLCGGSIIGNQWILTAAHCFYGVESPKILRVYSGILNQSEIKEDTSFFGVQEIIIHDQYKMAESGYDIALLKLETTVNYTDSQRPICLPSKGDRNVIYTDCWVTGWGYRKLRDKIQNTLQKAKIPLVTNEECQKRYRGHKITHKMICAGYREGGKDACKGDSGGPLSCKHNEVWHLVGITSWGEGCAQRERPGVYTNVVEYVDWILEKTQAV

[8] = target: T2, Coagulation factor VII (Homo sapiens); assay: Inhibition of factor 7a (unknown origin) at IC50 using pefachrome factor VIIa as substrate preincubated for 1 min followed by chromogenic substrate addition and measured for 2 mins; conditions: time 3.0 min
[9] = target: Coagulation factor X (Homo sapiens) (UniProt P00742); assay: Inhibition of factor 10a (unknown origin) at IC50 preincubated for 1 min followed by chromogenic substrate addition and measured for 2 mins; conditions: time 3.0 min
[10] = target: Prothrombin (Homo sapiens) (UniProt P00734); assay: Inhibition of factor 2a (unknown origin) at IC50 preincubated for 1 min followed by chromogenic substrate addition and measured for 2 mins; conditions: time 3.0 min
Plasma [11] = assay: (§1) Anticoagulation activity in human plasma assessed as drug level causing 20 times doubling of APTT preincubated for 2 mins followed by APTT reagent and measured after 3 mins by coagulometric method relative to dHG-5; format: functional; conditions: time 5 min
[12] = target: Coagulation factor XI (Homo sapiens) (UniProt P03951); assay: Inhibition of factor 11a (unknown origin) at IC50 using S-2366 as substrate preincubated for 1 min followed by chromogenic substrate addition and measured for 2 mins in presence of AT-III; conditions: time 3.0 min
[13] = target: Prothrombin (Homo sapiens) (UniProt P00734); assay: Inhibition of factor 2a (unknown origin) at IC90 preincubated for 1 min followed by chromogenic substrate addition and measured for 2 mins in presence of AT-III; conditions: time 3.0 min
Coagulation factor IX [14] = target: T3, Coagulation factor IX; assay: Inhibition of factor 9a (unknown origin) binding to immobilized biotinylated oHG-11 assessed as activity potency of oligosaccharides multiplied by the percentage of oligosaccharides in dHG-5 by biolayer interferometry relative to dHG-5
[15] = target: Prothrombin (Homo sapiens) (UniProt P00734); assay: Inhibition of factor 2a (unknown origin) at IC50 preincubated for 1 min followed by chromogenic substrate addition and measured for 2 mins in presence of AT-III; conditions: time 3.0 min
[16] = target: T1, Coagulation factor IX/VIII (Homo sapiens); assay: Inhibition of human citrated plasma iXase (factor 8a-factor 9a complex) preincubated for 2 mins followed by factor 10 addition and measured after 1 min by FXa chromogenic substrate SXa-11 based assay relative to dHG-5; format: protein-complex assay; conditions: time 3.0 min
[17] = target: Coagulation factor XI (Homo sapiens) (UniProt P03951); assay: Inhibition of factor 11a (unknown origin) at IC90 using S-2366 as substrate preincubated for 1 min followed by chromogenic substrate addition and measured for 2 mins in presence of AT-III; conditions: time 3.0 min
[18] = target: Coagulation factor X (Homo sapiens) (UniProt P00742); assay: Inhibition of factor 10a (unknown origin) at IC50 preincubated for 1 min followed by chromogenic substrate addition and measured for 2 mins in presence of AT-III; conditions: time 3.0 min
[19] = target: T4, Coagulation factor XII (Homo sapiens) (UniProt P00748); assay: Inhibition of factor 12a (unknown origin) at IC50 using kallikrein chromogenic substrate preincubated for 1 min followed by chromogenic substrate addition and measured for 2 mins in presence of AT-III; conditions: time 3.0 min
T4 sequence (whole entry): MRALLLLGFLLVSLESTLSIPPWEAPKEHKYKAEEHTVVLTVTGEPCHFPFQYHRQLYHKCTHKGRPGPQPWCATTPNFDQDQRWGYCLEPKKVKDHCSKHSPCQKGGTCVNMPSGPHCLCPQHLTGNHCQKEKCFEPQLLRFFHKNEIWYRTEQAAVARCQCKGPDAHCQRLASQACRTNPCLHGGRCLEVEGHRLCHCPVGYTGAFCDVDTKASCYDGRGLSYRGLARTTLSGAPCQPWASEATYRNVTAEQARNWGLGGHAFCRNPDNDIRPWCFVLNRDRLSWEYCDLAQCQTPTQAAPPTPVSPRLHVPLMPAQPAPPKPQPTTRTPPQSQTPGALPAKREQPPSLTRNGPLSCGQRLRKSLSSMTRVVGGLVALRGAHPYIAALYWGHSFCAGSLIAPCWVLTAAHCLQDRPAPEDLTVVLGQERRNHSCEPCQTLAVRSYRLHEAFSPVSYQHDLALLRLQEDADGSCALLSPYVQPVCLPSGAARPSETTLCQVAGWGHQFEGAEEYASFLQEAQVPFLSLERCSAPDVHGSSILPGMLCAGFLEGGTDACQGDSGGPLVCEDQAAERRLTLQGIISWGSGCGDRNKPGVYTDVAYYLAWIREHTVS

Plasma [20] = assay: as §1, with “of APTT by measuring activity potency of oligosaccharides multiplied by the percentage of oligosaccharides in dHG-5 preincubated for” for “of APTT preincubated for”; format: functional; conditions: time 5 min
[21] = target: T4, Coagulation factor XII (Homo sapiens); assay: Inhibition of factor 12a (unknown origin) at IC50 using kallikrein chromogenic substrate preincubated for 1 min followed by chromogenic substrate addition and measured for 2 mins; conditions: time 3.0 min

`CC(=O)N[C@H]1[C@H](O[C@H]2[C@H](O[C@@H]3O[C@@H](C)[C@@H](OS(=O)(=O)[O-])[C@@H](OS(=O)(=O)O)[C@@H]3O)[C@@H](O)[C@H](O[C@@H]3[C@@H](NC(C)=O)[C@H](O[C@H]4[C@H](O[C@@H]5O[C@@H](C)[C@@H](OS(=O)(=O)[O-])[C@@H](OS(=O)(=O)O)[C@@H]5O)[C@@H](O)[C@H](O[C@@H]5[C@@H](NC(C)=O)[C@H](O[C@H]6[C@H](O[C@@H]7O[C@@H](C)[C@@H](OS(=O)(=O)[O-])[C@@H](OS(=O)(=O)O)[C@@H]7O)[C@@H](O)[C@H](O[C@@H]7[C@@H](NC(C)=O)[C@H](O[C@H]8[C@H](O[C@@H]9O[C@@H](C)[C@@H](OS(=O)(=O)[O-])[C@@H](OS(=O)(=O)O)[C@@H]9O)[C@@H](O)[C@H](O[C@@H]9[C@@H](NC(C)=O)[C@H](O[C@@H]([C@H](O[C@@H]%10O[C@@H](C)[C@@H](OS(=O)(=O)[O-])[C@@H](OS(=O)(=O)O)[C@@H]%10O)[C@@H](O)CO)[C@H](O)C(=O)O)O[C@H](COS(=O)(=O)[O-])[C@@H]9OS(=O)(=O)[O-])O[C@@H]8C(=O)O)O[C@H](COS(=O)(=O)[O-])[C@@H]7OS(=O)(=O)[O-])O[C@@H]6C(=O)[O-])O[C@H](COS(=O)(=O)[O-])[C@@H]5OS(=O)(=O)[O-])O[C@@H]4C(=O)[O-])O[C@H](COS(=O)(=O)[O-])[C@@H]3OS(=O)(=O)[O-])O[C@@H]2C(=O)[O-])O[C@H](COS(=O)(=O)[O-])[C@H](OS(=O)(=O)[O-])[C@@H]1O[C@@H]1O[C@H](C(=O)[O-])[C@@H](O[C@@H]2O[C@H](COS(=O)(=O)[O-])[C@H](OS(=O)(=O)[O-])[C@H](O[C@@H]3O[C@H](C(=O)[O-])[C@@H](O[C@@H]4O[C@H](COS(=O)(=O)[O-])[C@H](OS(=O)(=O)[O-])[C@H](O[C@@H]5O[C@H](C(=O)O)[C@@H](O[C@@H]6O[C@H](COS(=O)(=O)[O-])[C@H](OS(=O)(=O)[O-])[C@H](O[C@@H]7OC(C(=O)O)=C[C@H](O[C@@H]8O[C@@H](C)[C@@H](OS(=O)(=O)[O-])[C@@H](OS(=O)(=O)O)[C@@H]8O)[C@H]7O)[C@H]6NC(C)=O)[C@H](O[C@@H]6O[C@@H](C)[C@@H](OS(=O)(=O)[O-])[C@@H](OS(=O)(=O)O)[C@@H]6O)[C@H]5O)[C@H]4NC(C)=O)[C@H](O[C@@H]4O[C@@H](C)[C@@H](OS(=O)(=O)[O-])[C@@H](OS(=O)(=O)O)[C@@H]4O)[C@H]3O)[C@H]2NC(C)=O)[C@H](O[C@@H]2O[C@@H](C)[C@@H](OS(=O)(=O)[O-])[C@@H](OS(=O)(=O)O)[C@@H]2O)[C@H]1O.[Na+].[Na+].[Na+].[Na+].[Na+].[Na+].[Na+].[Na+].[Na+].[Na+].[Na+].[Na+].[Na+].[Na+].[Na+].[Na+].[Na+].[Na+].[Na+].[Na+].[Na+].[Na+].[Na+].[Na+].[Na+].[Na+].[Na+].[Na+].[Na+].[Na+]` was tested, and the Ratio [1] was 19.1 U, the inhibition [2] was “inactive” and the inhibition [3] was “inactive”. For the same compound, the Ratio (Rattus norvegicus [4]) was 13.38 U, the Ratio (Coagulation factor IX [5]) was 235 U and the Ratio (Rattus norvegicus [6]) was 284.73 U. For the same compound, the inhibition [7] was “inactive”, the “inhibition (active/not active)” value [8] was “inactive” and the inhibition [9] was “inactive”. The inhibition [10] was “inactive”, the Ratio (Plasma [11]) was 319.64 U and the inhibition [12] was “inactive”. The inhibition [13] was “Active”, the Ratio (Coagulation factor IX [14]) was 11.2 U and the inhibition [15] was “inactive”. For the same compound, the Ratio [16] was 403 U, the inhibition [17] was “Active” and the inhibition [18] was “inactive”. The inhibition [19] was “inactive”, the Ratio (Plasma [20]) was 15.15 U and the inhibition [21] was “inactive”.
